Measured values taken from patent US12338219B2, “Antimalarial agents” (Merck Sharp & Dohme LLC, priority 2019, dated 2025).

Test system: parasites (ring stage parasites, parasite growth)
Test: Parasite LDH growth assay (Parasite Assay), antiparasite potency
Type: cell-based
Conditions: 72 hours growth, LDH readout
Summary of the method: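 Ring-stage culture was adjusted to 0.7% parasitemia and 2% haematocrit in bicarbonate-buffered RPMI-Hepes with heat-inactivated human serum and 0.5% albumax, then added to compound. Plates were incubated 72 h at 37 °C in gassed humidified boxes, frozen at −80 °C overnight and thawed, and growth was read by LDH assay.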

| SMILES | EC50 (72 h, Table 3) [nM] | EC50 (Table 3) [nM] | other results |
| --- | --- | --- | --- |
| COCC[C@H]([C@@H]1C[C@H]1C(=O)N[C@@H]1CC(C)(C)Oc2cc(C)c(C)cc21)N1C(=N)NC(C)(C)CC1=O [Example 138B] | 18 |  |  |
| CCC1(CC)CC(=O)N([C@@H](c2cccnc2)[C@@H]2C(C)[C@H]2C(=O)N[C@H]2CC(C)(C)Oc3ccccc32)C(=N)N1 (stereo partly shown) [Example 56A] | 65 |  |  |
| CCC1(CC)CC(=O)N(C[C@H]2[C@H](C(=O)N[C@H]3CC(C)(C)Oc4ccccc43)C2(C)C)C(=N)N1 [Example 34] | 286 |  |  |
| CCC1(CC)CC(=O)N(CC2C(C(=O)N[C@H]3CC(C)(C)Oc4ccccc43)C2(F)F)C(=N)N1 (single isomer, unassigned) [Example 16B] |  | 119 |  |
| CCC1(CC)CC(=O)N(C[C@@H]2C(C)[C@H]2C(=O)N[C@H]2C[C@H](C(F)(F)F)Oc3ccccc32)C(=N)N1 (stereo partly shown) [Example 28A] | 12 |  |  |
| COCC[C@H]([C@@H]1C[C@H]1C(=O)N[C@@H]1CC(C)(C)Oc2c(F)cc(F)cc21)N1C(=N)NC(C)(C)CC1=O [Example 113A] | 19 |  |  |
| CC1(C)CC(=O)N([C@H](c2ccc(C#N)cc2)[C@@H]2C[C@H]2C(=O)N[C@@H]2c3ccccc3OC(C)(C)[C@H]2O)C(=N)N1 [Example 46] | 2.5 |  |  |
| CCC1(CC)CC(=O)N(C(CC(C)OC)[C@@H]2C[C@H]2C(=O)N[C@@H]2CC(C)(C)Oc3ccccc32)C(=N)N1 (single isomer, unassigned) [Example 143B] |  |  | EC50 (Table 4 (unit inferred)): 2.4 nM |
| CCC1(CC)CC(=O)N([C@H](CCOC)[C@@H]2C[C@H]2C(=O)NC2CC(C)(C)Oc3cccc(Cl)c32)C(=N)N1 (stereo partly shown) [Example 149B] |  |  | EC50 (Table 4 (unit inferred)): 1.2 nM |
| COc1cncc([C@H]([C@@H]2C[C@H]2C(=O)N[C@H]2C[C@H](C(F)(F)F)Oc3ccccc32)N2C(=N)NC(C)(C)CC2=O)c1 [Example 41] | 1.1 |  |  |
| COCC[C@H]([C@@H]1C[C@H]1C(=O)NC1CC(C)(C)Oc2c(Cl)cc(Cl)cc21)N1C(=N)NC(C)(C)CC1=O (stereo partly shown) [Example 106B] |  | 10 |  |
| CCC1(CC)CC(=O)N([C@H](CCOC)[C@@H]2C[C@H]2C(=O)NC2CC(C)(C)Oc3c(Cl)cccc32)C(=N)N1 (stereo partly shown) [Example 148A] |  |  | EC50 (72 h, Table 4 (unit inferred)): 2.7 nM |
| COCC1(C)CC(NC(=O)[C@@H]2C[C@H]2[C@@H](c2cccnc2)N2C(=N)NC(C)(C)CC2=O)c2ccccc2O1 (single isomer, unassigned) [Example 108A] |  | 70 |  |
| CCC1(CC)CC(=O)N(C[C@@H]2C[C@H]2C(=O)N[C@H]2CC(C)(C)Oc3ccc(F)cc32)C(=N)N1 [Example 7A] | 135 |  |  |
| CC1(C)CC(=O)N(C(c2cccc(C#N)c2)[C@@H]2C[C@H]2C(=O)NC2CC(C)(C)Oc3ccc(F)cc32)C(=N)N1 (stereo partly shown) [Example 53A] | 3.1 |  |  |
| COCC[C@H]([C@@H]1C[C@H]1C(=O)NC1CC(C)(C)Oc2c(Cl)cccc21)N1C(=N)NC(C)(C)CC1=O (stereo partly shown) [Example 112B] |  | 9.4 |  |
| COCC[C@H]([C@@H]1C[C@H]1C(=O)N[C@H]1CC(C)(C)Oc2cccc(OC(F)(F)F)c21)N1C(=N)NC(C)(C)CC1=O [Example 107A] | 2.1 |  |  |
| CC[C@]1(C)CC(=O)N([C@H](CCOC)[C@@H]2C[C@H]2C(=O)NC2CC(C)(C)Oc3ccc(F)cc32)C(=N)N1 (single isomer, unassigned) [Example 130A] |  | 0.9 |  |
| CCC1(C)CC(NC(=O)[C@@H]2C[C@H]2[C@@H](c2cccnc2)N2C(=N)NC(C)(C)CC2=O)c2ccccc2O1 (single isomer, unassigned) [Example 105A] |  | 0.9 |  |
| CC(C)C1(C)CC(NC(=O)[C@@H]2C[C@H]2CN2C(=N)NC(C)(C)CC2=O)c2ccccc2O1 (stereo partly shown) [Example 79A] | 255 |  |  |
| CCC1(CC)CC(=O)N([C@H](CCOC)[C@@H]2C[C@H]2C(=O)N[C@@H]2CC(C)(C)Oc3ccccc32)C(=N)N1 [Example 1B] | 250 |  |  |
| COCC1(C)CC(NC(=O)[C@@H]2C[C@H]2[C@@H](c2cccnc2)N2C(=N)NC(C)(C)CC2=O)c2ccccc2O1 (single isomer, unassigned) [Example 108D] |  | 8.5 |  |
| CC1(C)CC(=O)N([C@H](c2cncc(Cl)c2)[C@@H]2C[C@H]2C(=O)N[C@@H]2c3ccccc3OC(C)(C)[C@H]2O)C(=N)N1 [Example 59] | 3.8 |  |  |
| COc1cccc2c1C(NC(=O)[C@@H]1C[C@H]1[C@@H](c1cccnc1)N1C(=N)NC(C)(C)CC1=O)CC(C)(C)O2 (stereo partly shown) [Example 96B] |  | 3.3 |  |
| CC1(C)CC(=O)N(C[C@@H]2C[C@H]2C(=O)N[C@H]2CC(C)(C)Oc3cccc(F)c32)C(=N)N1 [Example 87] | 160 |  |  |

| SMILES | EC50 (72 h, Table 3) [nM] | EC50 (Table 3) [nM] | other results |
| --- | --- | --- | --- |
| CC1(C)CC(=O)N([C@H](c2cccnc2)[C@@H]2C[C@H]2C(=O)NC2CC(C)(C)Oc3cccc(F)c32)C(=N)N1 (stereo partly shown) [Example 86B] |  | 2.8 |  |
| CCC1(CC)CC(=O)N(CC2C(C(=O)N[C@H]3CC(C)(C)Oc4ccccc43)C2(F)F)C(=N)N1 (single isomer, unassigned) [Example 16A] |  | 33 |  |
| COCC[C@H]([C@@H]1C[C@H]1C(=O)N[C@H]1C[C@H](C(F)(F)F)Oc2ccccc21)N1C(=N)N[C@](C)(C(C)C)CC1=O [Example 21A] |  | 260 |  |
| COCC[C@H]([C@@H]1C[C@H]1C(=O)NC1CC(C)(C)Oc2c(Cl)cc(Cl)cc21)N1C(=N)NC(C)(C)CC1=O (stereo partly shown) [Example 106A] | 7.4 |  |  |
| CCC1(CC)CC(=O)N(CC2CC2C(=O)N[C@H]2CCOc3ccccc32)C(=N)N1 (stereo partly shown) [Example 4D] |  | 91 |  |
| CC1(C)CC(=O)N(C[C@@H]2C[C@H]2C(=O)NC2CC(C)(C)Oc3ccc(OC(F)(F)F)cc32)C(=N)N1 (stereo partly shown) [Example 125A] | 231 |  |  |
| CCC1(CC)CC(=O)N([C@H](CCOC)[C@@H]2C[C@H]2C(=O)N[C@@H]2c3ccccc3C[C@H]2O)C(=N)N1 [Example 13] | 24 |  |  |
| CCC1(CC)CC(=O)N([C@H](c2cccnc2)[C@@H]2C[C@H]2C(=O)N[C@H]2c3ccccc3OC(C)(C)[C@@H]2O)C(=N)N1 [Example 11A] | 4.1 |  |  |
| CC[C@]1(C)CC(=O)N([C@H](CCOC)[C@@H]2C[C@H]2C(=O)NC2CC(C)(C)Oc3ccc(OC(F)(F)F)cc32)C(=N)N1 (stereo partly shown) [Example 129B] |  | 2.5 |  |
| CC1(C)CC(=O)N([C@H](c2cccnc2)[C@@H]2C[C@H]2C(=O)NC2CC(C)(C)Oc3cccc(F)c32)C(=N)N1 (stereo partly shown) [Example 86A] | 2.2 |  |  |
| CCC1(CC)CC(=O)N([C@H](CCOC)[C@@H]2C[C@H]2C(=O)N[C@@H]2c3ccccc3OCC2(C)C)C(=N)N1 [Example 19B] | 4.2 |  |  |
| CCC1(CC)CC(=O)N([C@H](CCOC)[C@@H]2C[C@H]2C(=O)N[C@@H]2CC(C)(C)Oc3ccccc32)C(=N)N1 [Example 141] |  |  | EC50 (72 h, Table 4 (unit inferred)): 4.7 nM |
| COCC[C@H]([C@@H]1C[C@H]1C(=O)N[C@H]1CC(C)(C)Oc2cc(OC(F)(F)F)ccc21)N1C(=N)NC(C)(C)CC1=O [Example 134B] | 25 |  |  |
| CC1(C)CC(=O)N(C[C@@H]2C[C@H]2C(=O)NC2CC(C)(C)Oc3c(Cl)cc(Cl)cc32)C(=N)N1 (stereo partly shown) [Example 97B] |  | 220 |  |
| CCC1(CC)CC(=O)N([C@H](c2cccnc2)[C@H]2[C@H](C(=O)N[C@H]3C[C@H](C(F)(F)F)Oc4ccccc43)C2(C)C)C(=N)N1 [Example 44B] | 0.9 |  |  |
| CCC1(CC)CC(=O)N(CC2C(C(=O)N[C@H]3C[C@H](C(F)(F)F)Oc4ccccc43)C2(C)C)C(=N)N1 (stereo partly shown) [Example 31A] | 215 |  |  |
| Cc1cc2c(cc1Cl)[C@@H](NC(=O)[C@@H]1C[C@H]1CN1C(=N)NC(C)(C)CC1=O)CC(C)(C)O2 [Example 136] | 160 |  |  |
| COCC[C@H]([C@@H]1C[C@H]1C(=O)N[C@@H]1CC(C)(C)Oc2cccc(OC(F)(F)F)c21)N1C(=N)NC(C)(C)CC1=O [Example 107B] | 11 |  |  |
| CCC1(CC)CC(=O)N([C@H](CCOC)[C@@H]2C[C@H]2C(=O)NC2CC(C)(C)Oc3c(Cl)cccc32)C(=N)N1 (stereo partly shown) [Example 148B] |  |  | EC50 (Table 4 (unit inferred)): 1.9 nM |
| CC1(C)CC(=O)N(C[C@@H]2C[C@H]2C(=O)N[C@H]2CC(C)(C)Oc3c(C(F)(F)F)ccc(F)c32)C(=N)N1 [Example 99] | 130 |  |  |
| CCC1(CC)CC(=O)N(CC2C(C(=O)N[C@H]3CCOc4ccccc43)C2(F)F)C(=N)N1 (stereo partly shown) [Example 15B] |  | 230 |  |
| CCC1C[C@H](NC(=O)[C@@H]2C[C@H]2CN2C(=N)NC(C)(C)CC2=O)c2ccccc2O1 (single isomer, unassigned) [Example 133B] |  | 100 |  |
| CC1(C)CC(=O)N([C@H](c2cccnc2)[C@@H]2C[C@H]2C(=O)N[C@@H]2c3ccccc3OC(C)(C)[C@H]2O)C(=N)N1 [Example 27] | 78 |  |  |
| CCC1(CC)CC(=O)N(C[C@@H]2C(C)[C@H]2C(=O)N[C@H]2CC(C)(C)Oc3ccccc32)C(=N)N1 (single isomer, unassigned) [Example 25B] |  | 25 |  |
